For one assay, the target named is T1, ROCK1 (Homo sapiens, UniProt Q13464).
T1 construct: endogenous in cells; host or cells: HAP1 knockout cells
Description: Cell-Based Assay, ROCK1 (HAP1 knockout cells, phospho-MYPT1 Thr853 ELISA). The settings on record: read-out: Results from Cell-Based Assay IC50 (μM) ROCK1. The protocol:
Part II—Procedure for Determining ROCK Inhibition Ability of Test Compounds Using a Cell-Base Assay
The Cell-Based Assay for determining ROCK inhibition ability of test compounds utilized a genetically modified HAP1 cell line engineered to eliminate expression of either ROCK1 or ROCK2. In the procedure, HAP1 knockout cells are grown in Iscove's Modified Dulbecco's Medium that is additionally supplemented with 10% fetal bovine and 1x antibiotic-antimycotic mixture. Cells are plated in 96 well tissue culture plates at 1×10^5 cells/well (100 μL, of cells at 1×10^6/mL). Test compounds are solubilized in DMSO and diluted into the same media used to grow the cells. A 100 μL, aliquot of each compound dilution in media is added to each well containing the HAP1 cells and incubated at 37° C. for 30 minutes. Following compound incubation, the cells are pelleted by centrifugation at 1800 rpm for 5 minutes at 4° C. Media is removed from the cell pellet and the cells lysed and de-salted. An 80 μL, aliquot of each cell lysate is added to a single well of a 96-well high binding ELISA plate which has been pre-coated with a MYPT1 capture antibody and incubated at 4° C. overnight. The following day the ELISA plate is washed 4× with 0.05% Tween-20 in PBS. After washing, an anti-phospho-MYPT1 (Thr853) antibody is added and allowed to bind for 1 hour at room temperature. The wash step is repeated, and then an anti-rabbit HRP detection antibody is added and allowed to incubate at room temperature for 1 hour. The wash step is then repeated and 100 μL/well 1-Step™ Ultra TMB substrate is added to the ELISA plate and allowed to develop for approximately 5 minutes. The reaction is stopped by addition of H2SO4. Absorbance is read at 450 OD. Data is analyzed using GraphPad Prism software to calculate the 50% inhibitory concentration of test compound (IC50).
A general note: An ELISA detects its analyte on a solid surface through an enzyme-linked reagent.

Assay [1] addresses T2, GST-tagged human ROCK2 catalytic domain 1-553 (Homo sapiens, UniProt O75116).
T2 construct: GST-tagged human ROCK2 catalytic domain 1-553 from Carna Biosciences (Cat #01-110); purchased Carna Biosciences 01-110; host or cells: baculovirus expression system
Briefly: Isolated Enzyme Assay, ROCK2 (LANCE Ultra ULight-CREBtide FRET). It counts as biochemical. To be noted: isolated enzyme assay; 30 μM highest concentration tested; read-out: Results from Isolated Enzyme Assay IC50 (μM) ROCK2. Summed up: (§1)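 Baculovirus-expressed constitutively active ROCK1 or ROCK2 (2 nM) incubated 90 min at room temperature with 50 nM ULight-CREBtide and compound (0.5% DMSO) in Tris pH 7.5, MgCl2, EGTA, Tween-20, DTT. EDTA-stopped; phospho-substrate detected by Eu-anti-phospho-CREB TR-FRET after 60 min; IC50 by non-linear regression.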

The target of assay [2] is T3, GST-tagged human ROCK1 catalytic domain 1-477 (Homo sapiens, UniProt Q13464).
T3 construct: human ROCK1 catalytic domain 1-477 from Carna Biosciences (cat #01-109); purchased Carna Biosciences 01-109; host or cells: baculovirus expression system
T3 sequence (Q13464 1-477): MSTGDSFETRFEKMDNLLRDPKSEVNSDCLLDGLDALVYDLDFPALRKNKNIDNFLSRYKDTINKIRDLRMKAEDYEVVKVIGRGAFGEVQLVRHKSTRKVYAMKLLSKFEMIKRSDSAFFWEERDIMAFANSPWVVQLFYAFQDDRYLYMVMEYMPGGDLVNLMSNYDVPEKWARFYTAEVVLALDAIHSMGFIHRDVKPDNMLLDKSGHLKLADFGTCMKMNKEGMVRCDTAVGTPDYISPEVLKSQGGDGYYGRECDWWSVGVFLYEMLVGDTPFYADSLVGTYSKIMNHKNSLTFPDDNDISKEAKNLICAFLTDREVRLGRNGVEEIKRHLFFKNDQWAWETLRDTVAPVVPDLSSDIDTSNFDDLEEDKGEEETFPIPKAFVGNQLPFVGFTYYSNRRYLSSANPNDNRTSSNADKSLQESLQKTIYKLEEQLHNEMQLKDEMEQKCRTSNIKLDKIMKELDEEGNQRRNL
Briefly: Isolated Enzyme Assay, ROCK1 (LANCE Ultra ULight-CREBtide FRET). It counts as biochemical. To be noted: isolated enzyme assay; 30 μM highest concentration tested; read-out: Results from Isolated Enzyme Assay IC50 (μM) ROCK1. In short, it runs like this:
as §1

In a further assay the target is T4, ROCK2 (Homo sapiens, UniProt O75116).
T4 construct: endogenous in cells; host or cells: HAP1 knockout cells
T4 sequence (O75116 whole entry): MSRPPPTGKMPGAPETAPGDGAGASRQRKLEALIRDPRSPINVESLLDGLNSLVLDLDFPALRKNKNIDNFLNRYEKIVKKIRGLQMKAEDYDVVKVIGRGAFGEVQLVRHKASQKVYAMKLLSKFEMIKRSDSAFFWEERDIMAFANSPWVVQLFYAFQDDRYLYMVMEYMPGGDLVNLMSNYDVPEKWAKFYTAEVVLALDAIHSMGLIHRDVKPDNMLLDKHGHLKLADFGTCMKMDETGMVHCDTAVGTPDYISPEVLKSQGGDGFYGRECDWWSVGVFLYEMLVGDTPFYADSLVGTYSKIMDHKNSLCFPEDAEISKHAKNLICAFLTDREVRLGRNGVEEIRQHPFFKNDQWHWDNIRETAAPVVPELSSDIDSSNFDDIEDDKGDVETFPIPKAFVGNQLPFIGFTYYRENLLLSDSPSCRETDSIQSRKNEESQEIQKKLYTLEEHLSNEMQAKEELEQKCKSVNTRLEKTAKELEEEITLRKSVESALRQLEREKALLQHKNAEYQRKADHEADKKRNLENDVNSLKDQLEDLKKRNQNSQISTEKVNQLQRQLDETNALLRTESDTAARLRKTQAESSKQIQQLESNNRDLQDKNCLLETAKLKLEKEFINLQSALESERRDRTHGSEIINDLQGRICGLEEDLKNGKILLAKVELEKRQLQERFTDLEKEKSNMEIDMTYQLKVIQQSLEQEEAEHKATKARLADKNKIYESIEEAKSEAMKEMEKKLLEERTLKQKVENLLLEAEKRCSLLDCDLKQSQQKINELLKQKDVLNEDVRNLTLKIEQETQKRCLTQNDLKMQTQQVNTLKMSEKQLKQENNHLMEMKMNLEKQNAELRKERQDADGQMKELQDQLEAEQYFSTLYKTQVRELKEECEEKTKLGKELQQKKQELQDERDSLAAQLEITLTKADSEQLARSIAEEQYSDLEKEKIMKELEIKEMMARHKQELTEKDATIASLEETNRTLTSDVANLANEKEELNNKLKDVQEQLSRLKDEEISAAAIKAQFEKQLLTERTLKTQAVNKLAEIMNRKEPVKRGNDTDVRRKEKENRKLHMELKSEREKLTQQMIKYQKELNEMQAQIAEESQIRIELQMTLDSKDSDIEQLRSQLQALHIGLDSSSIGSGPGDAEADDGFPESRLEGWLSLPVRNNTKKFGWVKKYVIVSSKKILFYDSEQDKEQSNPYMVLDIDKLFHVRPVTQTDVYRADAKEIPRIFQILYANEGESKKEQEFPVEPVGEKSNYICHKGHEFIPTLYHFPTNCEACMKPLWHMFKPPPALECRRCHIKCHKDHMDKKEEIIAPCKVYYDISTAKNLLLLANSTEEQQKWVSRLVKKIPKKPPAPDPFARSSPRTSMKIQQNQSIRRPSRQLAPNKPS
Briefly: Cell-Based Assay, ROCK2 (HAP1 knockout cells, phospho-MYPT1 Thr853 ELISA). To be noted: class symbols, read-out: Results from Cell-Based Assay IC50 (μM) ROCK2.

Read-outs that look alike come from different tables or passages of the source.

A word on the IC50: it is the concentration that gives 50% inhibition.

T2 sequence (O75116 1-553): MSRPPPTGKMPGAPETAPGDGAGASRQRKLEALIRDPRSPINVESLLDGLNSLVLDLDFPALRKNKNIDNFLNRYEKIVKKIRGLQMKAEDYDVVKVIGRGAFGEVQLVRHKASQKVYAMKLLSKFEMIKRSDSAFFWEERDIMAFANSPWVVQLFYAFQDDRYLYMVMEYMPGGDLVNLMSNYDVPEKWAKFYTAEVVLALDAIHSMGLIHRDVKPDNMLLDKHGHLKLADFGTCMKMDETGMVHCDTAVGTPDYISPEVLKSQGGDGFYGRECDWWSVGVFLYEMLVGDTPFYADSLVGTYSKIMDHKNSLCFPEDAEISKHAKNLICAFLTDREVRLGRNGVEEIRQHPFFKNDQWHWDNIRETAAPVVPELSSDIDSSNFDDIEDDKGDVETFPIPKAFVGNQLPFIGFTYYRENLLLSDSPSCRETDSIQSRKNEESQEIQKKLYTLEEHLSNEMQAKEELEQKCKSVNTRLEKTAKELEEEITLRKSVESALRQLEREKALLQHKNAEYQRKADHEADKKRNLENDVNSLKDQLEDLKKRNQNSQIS
T1 sequence (Q13464 whole entry): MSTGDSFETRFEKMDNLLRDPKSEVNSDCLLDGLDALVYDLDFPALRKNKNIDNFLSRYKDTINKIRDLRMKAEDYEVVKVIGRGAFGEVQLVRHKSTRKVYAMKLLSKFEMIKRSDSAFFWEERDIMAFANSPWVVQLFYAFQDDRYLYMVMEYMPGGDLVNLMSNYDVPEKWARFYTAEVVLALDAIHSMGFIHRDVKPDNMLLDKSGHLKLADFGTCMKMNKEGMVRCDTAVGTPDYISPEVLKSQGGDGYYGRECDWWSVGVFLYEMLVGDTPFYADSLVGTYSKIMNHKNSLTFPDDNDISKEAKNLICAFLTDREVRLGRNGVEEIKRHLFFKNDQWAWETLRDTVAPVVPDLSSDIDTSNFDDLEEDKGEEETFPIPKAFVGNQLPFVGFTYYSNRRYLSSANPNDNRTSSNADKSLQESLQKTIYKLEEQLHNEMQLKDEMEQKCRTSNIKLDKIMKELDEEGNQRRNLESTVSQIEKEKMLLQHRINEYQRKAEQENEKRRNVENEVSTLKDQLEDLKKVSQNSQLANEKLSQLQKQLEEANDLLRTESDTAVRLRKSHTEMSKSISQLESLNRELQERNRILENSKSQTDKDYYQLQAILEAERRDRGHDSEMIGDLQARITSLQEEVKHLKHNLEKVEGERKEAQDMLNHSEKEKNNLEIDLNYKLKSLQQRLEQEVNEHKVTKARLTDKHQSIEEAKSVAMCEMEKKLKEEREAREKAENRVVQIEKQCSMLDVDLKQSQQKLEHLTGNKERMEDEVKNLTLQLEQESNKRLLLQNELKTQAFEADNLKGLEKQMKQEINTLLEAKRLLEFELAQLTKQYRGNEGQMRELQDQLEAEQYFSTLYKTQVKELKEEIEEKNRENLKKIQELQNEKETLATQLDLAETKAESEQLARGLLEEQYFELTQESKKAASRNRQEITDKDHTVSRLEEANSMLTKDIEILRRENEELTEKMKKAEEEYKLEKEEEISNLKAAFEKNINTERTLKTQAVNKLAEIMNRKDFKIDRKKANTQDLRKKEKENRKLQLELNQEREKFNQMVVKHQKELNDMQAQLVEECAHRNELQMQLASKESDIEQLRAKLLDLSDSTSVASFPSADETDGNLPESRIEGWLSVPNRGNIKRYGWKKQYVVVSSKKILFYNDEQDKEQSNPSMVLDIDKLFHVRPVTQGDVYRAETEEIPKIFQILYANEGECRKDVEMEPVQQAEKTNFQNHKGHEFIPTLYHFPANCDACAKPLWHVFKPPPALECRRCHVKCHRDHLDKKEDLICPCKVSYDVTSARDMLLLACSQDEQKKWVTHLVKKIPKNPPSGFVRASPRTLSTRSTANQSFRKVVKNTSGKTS

In the case of `O=C(NCC(F)(F)F)c1cccc(-c2nsc(Nc3ccc4[nH]ncc4c3Cl)n2)c1` [IV-81], the IC50 at ROCK1 (numeric bound) is > 10 µM; in assay [1], < 1 µM; in assay [2] it was < 1 µM; on ROCK2, < 1 µM.

Take `CNC(=O)c1cc(-c2nsc(Nc3ccc4[nH]ncc4c3Cl)n2)cn(C)c1=O` [IV-2]: the half-inhibitory concentration (IC50) at ROCK1 (numeric bound) was > 10 µM; in assay [1], < 1 µM; in assay [2], < 1 µM; on ROCK2, < 1 µM.

Take `O=C(NC1CCOCC1)c1cc(-c2nsc(Nc3ccc4[nH]ncc4c3Cl)n2)ccc1F` [IV-47]: the half-inhibitory concentration (IC50) on ROCK1 (class symbols) is 1 to 15 µM; in assay [1] it was < 1 µM; in assay [2] it was < 1 µM; at ROCK2, < 1 µM.

In the case of `CC(C)(O)CNC(=O)c1cc(-c2nsc(Nc3ccc4[nH]ncc4c3Cl)n2)ccc1F` [IV-22], the IC50 is 1 to 15 µM on ROCK1 (class symbols), < 1 µM in assay [1], < 1 µM in assay [2] and < 1 µM on ROCK2.

With `O=C1OCCN1c1cccc(-c2nsc(Nc3ccc4[nH]ncc4c3Cl)n2)c1` [IV-55], the IC50 is 1 to 15 µM at ROCK1 (class symbols), < 1 µM in assay [1], < 1 µM in assay [2] and < 1 µM on ROCK2.

For the molecule `CC(C)c1cc(C(=O)Nc2cccc(-c3nsc(Nc4ccc5[nH]ncc5c4Cl)n3)c2)n(C)n1` [IV-63], the half-inhibitory concentration (IC50) at ROCK1 (class symbols) was 1 to 15 µM; in assay [1] it was < 1 µM; in assay [2], < 1 µM; on ROCK2 it was < 1 µM.

As for `CC(C)NC(=O)c1cc(-c2nsc(Nc3ccc4[nH]ncc4c3Cl)n2)ccc1F` [IV-14], the half-inhibitory concentration (IC50) was 1 to 15 µM on ROCK1 (class symbols), < 1 µM in assay [1], < 1 µM in assay [2] and < 1 µM at ROCK2.

For `COc1ncc(C(=O)Nc2cccc(-c3nsc(Nc4ccc5[nH]ncc5c4Cl)n3)c2)cn1` [IV-70], the half-maximal inhibitory concentration (IC50) on ROCK1 (numeric bound) is > 10 µM; in assay [1], < 1 µM; in assay [2] it was < 1 µM; at ROCK2, < 1 µM.

For the molecule `CC1(C)CN(c2cccc(-c3nsc(Nc4ccc5[nH]ncc5c4Br)n3)c2)C(=O)O1` [IV-35], the half-maximal inhibitory concentration (IC50) on ROCK1 (class symbols) was 1 to 15 µM; in assay [1] it was < 1 µM; in assay [2], < 1 µM; at ROCK2 it was < 1 µM.

Take `Cc1nc(C)c(C(=O)Nc2cccc(-c3nsc(Nc4ccc5[nH]ncc5c4Cl)n3)c2)o1` [IV-61]: the 50% inhibitory concentration (IC50) on ROCK1 (numeric bound) was > 10 µM; in assay [1], < 1 µM; in assay [2], < 1 µM; at ROCK2, < 1 µM.

For the molecule `CN1CCC(NC(=O)c2cc(-c3nsc(Nc4ccc5[nH]ncc5c4Cl)n3)ccc2F)CC1` [IV-46], the IC50 at ROCK1 (numeric bound) was > 10 µM; in assay [1], < 1 µM; in assay [2], < 1 µM; at ROCK2, < 1 µM.

In the case of `CNC(=O)c1cccc(-c2nsc(Nc3ccc4[nH]ncc4c3Cl)n2)c1` [IV-107], the half-inhibitory concentration (IC50) is > 10 µM at ROCK1 (numeric bound), < 1 µM in assay [1], < 1 µM in assay [2] and < 1 µM on ROCK2.

In the case of `Cn1cc(C(=O)Nc2cccc(-c3nsc(Nc4ccc5[nH]ncc5c4Cl)n3)c2)c(C(F)(F)F)n1` [IV-72], the half-inhibitory concentration (IC50) on ROCK1 (class symbols) was 1 to 15 µM; in assay [1] it was < 1 µM; in assay [2], < 1 µM; on ROCK2, < 1 µM.

Turning to `CC(C)NC(=O)COc1cccc(-c2nsc(Nc3ccc4[nH]ncc4c3Cl)n2)c1` [IV-9], the IC50 at ROCK1 (class symbols) was 1 to 15 µM; in assay [1], < 1 µM; in assay [2] it was < 1 µM; at ROCK2, < 1 µM.

As for `Cc1coc(-c2cccc(-c3nsc(Nc4ccc5[nH]ncc5c4F)n3)c2)n1` [IV-15], the IC50 on ROCK1 (numeric bound) was > 10 µM; in assay [1] it was < 1 µM; in assay [2] it was < 1 µM; at ROCK2, < 1 µM.

For the molecule `Cc1coc(-c2cc(-c3nsc(Nc4ccc5[nH]ncc5c4Cl)n3)ccn2)n1` [IV-59], the IC50 is > 10 µM on ROCK1 (numeric bound), < 1 µM in assay [1], > 30 µM in assay [2] and < 1 µM on ROCK2.
